Key:
B2M = B2M editing in mouse liver by NGS after i.v. LNP delivery of Cas9 mRNA and sgRNA; assay type: in vivo; conditions: for Editing (%) of B2M in mouse liver: Example 52: LNP single dose 0.1 mg/kg i.v., sgRNA G650:Cas9 mRNA 1:1, NGS; for Editing (%) of B2M in mouse liver / Editing (%) B2M liver / % Editing B2M in mouse liver: CD-1 female mice; for Editing (%) B2M liver: 6 days post-dose; for Editing (%) B2M liver / % Editing B2M in mouse liver: G650 1:1; for % Editing B2M in mouse liver: 7 days post-dose
Protocol: Preparations of various LNP compositions were prepared with amine lipids. In assays for percent liver editing in mice, Cas9 mRNA and chemically modified sgRNA were formulated in LNPs, at either a 1:1 w/w ratio or a 1:2 w/w ratio. LNPs are formulated with a composition of a given ionizable lipid (e.g. an amine lipid), DSPC, cholesterol, and PEG-2k-DMG, with a 6.0 N:P ratio.
LNPs were administered to mice by a single dose at 0.1 mg/kg, unless otherwise noted and genomic DNA was isolated for NGS analysis as described below.
CD-1 female mice, ranging from 6-10 weeks of age were used in each study. Animals were weighed and grouped according to body weight for preparing dosing solutions based on group average weight. LNPs were dosed via the lateral tail vein in a volume of 0.2 mL per animal (approximately 10 mL per kilogram body weight). The animals were periodically observed post dose for adverse effects for at least 24 hours post dose. Animals were euthanized at 6 or 7 days by exsanguination via cardiac puncture under isoflurane anesthesia. Blood was collected into serum separator tubes or into tubes containing buffered sodium citrate for plasma as described herein. For studies involving in vivo editing, liver tissue was collected from each animal for DNA extraction and analysis.
Cohorts of mice were measured for liver editing by Next-Generation Sequencing (NGS).
In brief, to quantitatively determine the efficiency of editing at the target location in the genome, genomic DNA was isolated and deep sequencing was utilized to identify the presence of insertions and deletions introduced by gene editing.
PCR primers were designed around the target site (e.g., B2M), and the genomic area of interest was amplified. Additional PCR was performed according to the manufacturer's protocols (Illumina) to add the necessary chemistry for sequencing. The amplicons were sequenced on an Illumina MiSeq instrument. The reads were aligned to the […] after eliminating those having low quality scores. The resulting files containing the reads were mapped to the reference genome (BAM files), where reads that overlapped the target region of interest were selected and the number of wild type reads versus the number of reads which contain an insertion, substitution, or deletion was calculated.
The editing percentage (e.g., the “editing efficiency” or “percent editing”) is defined as the total number of sequence reads with insertions or deletions over the total number of sequence reads, including wild type.
CD-1 female mice were dosed i.v. at 0.1 mpk or 0.3 mpk. […] For animals dosed with G282 targeting TTR, blood and the liver were collected and serum TTR and editing were measured. For animals dosed with G650 targeting B2M, liver was collected and editing was measured.

[1] = LNP average particle size and polydispersity by dynamic light scattering (Malvern Zetasizer); assay type: physicochemical
In short: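 LNPs diluted in PBS to a count rate of about 200–400 kcps and measured by dynamic light scattering. Size given as intensity-weighted Z-average diameter, with number-average diameter and polydispersity index also reported.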

[2] = pKa measurement of unformulated amine lipid (fluorescence, method of Jayaraman et al.); assay type: physicochemical; conditions: 100 μM in 0.1 M phosphate buffer pH 4.5-9.0
Protocol: The pKa of each amine lipid was determined according to the method in Jayaraman, et al. (Angewandte Chemie, 2012) with the following adaptations. […] Lipid was diluted to 100 μM in 0.1 M phosphate buffer (Boston Bioproducts) where the pH ranged from 4.5-9.0. Fluorescence intensity was measured using excitation and emission wavelengths of 321 nm and 448 nm.

[3] = Example 53 text: 0.1 mpk vs 0.3 mpk
[4] = Table 3, Example 52: LNP, Cas9 mRNA + sgRNA (G650) 1:1 w/w, N:P 6.0
[5] = Table 5, Example 53: LNP with gRNA G282 (TTR)
[6] = Table 5, Example 53: LNP with gRNA G650 (B2M)
[7] = Table 8, Example 54: LNP, G650 (B2M) 1:1
[8] = Table 10, Example 55: LNP, G282 1:1
[9] = Table 12, Example 56: LNP, G282
[10] = Table 14, Example 58: LNP, G282 1:1
[11] = Table 16, Example 59: LNP, G282 1:1
[12] = Table 18, Example 60: LNP, G502 1:2
[13] = Table 20, Example 61: LNP, G282 1:1
[14] = Table 22, Example 62: LNP, G282 1:2
[15] = Table 24, Example 63: LNP, G282 1:1
[16] = Table 26, Example 64: LNP, G282 1:1

## CCCCC/C=C\C/C=C\CCCCCCCC(=O)OCC(COC(=O)CCC(OCCCCCCCC)OCCCCCCCC)COC(=O)OCCCN(CC)CC (centres unmarked) [Compound 19, 3-((4,4-bis(octyloxy)butanoyl)oxy)-2-(((((3-(diethylamino)propoxy))-carbonyl)oxy)methyl)propyl (9Z,12Z)-octadeca-9,12-dienoate, reference compound]
B2M
  Editing (%) of B2M in mouse liver: 12.0%
B2M; Example 53: 0.1 mpk i.v.
  Editing (%) B2M liver: 25.5%
B2M; Example 53: 0.3 mpk i.v.
  Editing (%) B2M liver: 43.4%
B2M; [3]
  dose response of B2M editing in liver: increased editing of B2M in liver significantly between the 0.1 mpk and 0.3 mpk doses
B2M; Example 54: 0.1 mpk i.v.
  % Editing B2M in mouse liver: 13%
B2M; Example 54: 0.3 mpk i.v.
  % Editing B2M in mouse liver: 44%
B2M; Example 54 text: 0.1 mpk vs 0.3 mpk, 7 days
  dose response of B2M editing in liver: increased editing at the 0.3 mpk dose compared to the 0.1 mpk dose
[1]; [4]
  Num Ave Size (nm): 64.97 nm
  PDI: 0.056
  Z-Ave Size (nm): 82.71 nm
[1]; [5]
  Num Ave Size (nm): 62.86 nm
  PDI: 0.015
  Z-Ave Size (nm): 79.83 nm
[1]; [6]
  Num Ave Size (nm): 64.97 nm
  PDI: 0.056
  Z-Ave Size (nm): 82.71 nm
[1]; [7]
  Num Ave Size (nm): 64.97 nm
  PDI: 0.056
  Z-Ave Size (nm): 82.71 nm
[1]; [8]
  Num Ave Size (nm): 64.95 nm
  PDI: 0.025
  Z-Ave Size (nm): 81.76 nm
[1]; [9]
  Num Ave Size (nm): 63.19 nm
  PDI: 0.047
  Z-Ave Size (nm): 79.18 nm
[1]; [10]
  Num Ave Size (nm): 71.1 nm
  PDI: 0.007
  Z-Ave Size (nm): 84.99 nm
[1]; [11]
  Num Ave Size (nm): 71.49 nm
  PDI: 0.02
  Z-Ave Size (nm): 86.84 nm
[1]; [12]
  Num Ave Size (nm): 73.15 nm
  PDI: 0.033
  Z-Ave Size (nm): 88.6 nm
[1]; [13]
  Num Ave Size (nm): 71.49 nm
  PDI: 0.02
  Z-Ave Size (nm): 86.84 nm
[1]; [14]
  Num Ave Size (nm): 73.15 nm
  PDI: 0.033
  Z-Ave Size (nm): 88.6 nm
[1]; [15]
  Num Ave Size (nm): 66 nm
  PDI: 0.03
  Z-Ave Size (nm): 82 nm
[1]; [16]
  Num Ave Size (nm): 65 nm
  PDI: 0.03
  Z-Ave Size (nm): 83 nm
[2]
  pKa: 6.4

## CCCCCCCCCOC(=O)CCCCCCCN(CCO)CCCCCCCC(OCCCCCCCC)OCCCCCCCC [Compound 1, nonyl 8-((8,8-bis(octyloxy)octyl)(2-hydroxyethyl)amino octanoate]
B2M
  Editing (%) of B2M in mouse liver: 36.8%
B2M; Example 53: 0.1 mpk i.v.
  Editing (%) B2M liver: 41.0%
B2M; Example 53: 0.3 mpk i.v.
  Editing (%) B2M liver: 62.9%
B2M; Example 53 text: 0.1 and 0.3 mpk
  B2M editing in the liver compared with Compound 19: higher B2M editing in the liver than Compound 19 at each dose
B2M; [3]
  dose response of B2M editing in liver: increased editing of B2M in liver significantly between the 0.1 mpk and 0.3 mpk doses
[1]; [4]
  Num Ave Size (nm): 57.04 nm
  PDI: 0.105
  Z-Ave Size (nm): 79.49 nm
[1]; [5]
  Num Ave Size (nm): 61.19 nm
  PDI: 0.008
  Z-Ave Size (nm): 75.77 nm
[1]; [6]
  Num Ave Size (nm): 65.11 nm
  PDI: 0.028
  Z-Ave Size (nm): 80.96 nm
[1]; [8]
  Num Ave Size (nm): 55.38 nm
  PDI: 0.05
  Z-Ave Size (nm): 69.94 nm
[1]; [10]
  Num Ave Size (nm): 55.38 nm
  PDI: 0.05
  Z-Ave Size (nm): 69.94 nm
[1]; [11]
  Num Ave Size (nm): 57.78 nm
  PDI: 0.04
  Z-Ave Size (nm): 72.21 nm
[1]; [12]
  Num Ave Size (nm): 58.01 nm
  PDI: 0.037
  Z-Ave Size (nm): 74.5 nm
[1]; [14]
  Num Ave Size (nm): 58.01 nm
  PDI: 0.037
  Z-Ave Size (nm): 74.5 nm
[1]; [15]
  Num Ave Size (nm): 52 nm
  PDI: 0.06
  Z-Ave Size (nm): 70 nm
[2]
  pKa: 6.3

## CCCCCCCCOC(CCCCCCCN(CCO)CCCCCCCC(=O)OC(CC)CCCCCCCC)OCCCCCCCC (centres unmarked) [Compound 17, undecan-3-yl 8-((8,8-bis(octyloxy)octyl)(2-hydroxyethyl)amino)octanoate]
[1]; [10]
  Num Ave Size (nm): 54.25 nm
  PDI: 0.056
  Z-Ave Size (nm): 68.72 nm
[1]; [14]
  Num Ave Size (nm): 44.93 nm
  PDI: 0.072
  Z-Ave Size (nm): 62.89 nm
[2]
  pKa: 6.21

## CCCCCCCCOC(CCCCCCCN(CCO)CCCCCCCC(=O)OC(CC)CCCCCC)OCCCCCCCC (centres unmarked) [Compound 28, nonan-3-yl 8-((8,8-bis(octyloxy)octyl)(2-hydroxyethyl)amino)octanoate]
[1]; [15]
  Num Ave Size (nm): 42 nm
  PDI: 0.30
  Z-Ave Size (nm): 78 nm
[2]
  pKa: 6.41

## CCCCCCCCCOC(=O)CCCCCCCN(CCO)CCCCCCCC(=O)OC(CCCCCCCC)CCCCCCCC [Compound 18, heptadecan-9-yl 8-((2-hydroxyethyl)(8-(nonyloxy)-8-oxooctyl)amino)octanoate, reference compound]
[1]; [9]
  Num Ave Size (nm): 69.77 nm
  PDI: 0.112
  Z-Ave Size (nm): 106.6 nm
[1]; [11]
  Num Ave Size (nm): 53.06 nm
  PDI: 0.093
  Z-Ave Size (nm): 75.79 nm
[1]; [13]
  Num Ave Size (nm): 52.25 nm
  PDI: 0.083
  Z-Ave Size (nm): 74.67 nm
[2]
  pKa: 6.6

Reference: patent publication US20260225997A1, “IONIZABLE AMINE LIPIDS” (Intellia Therapeutics, Inc., priority 2018, published 2026)
